Reference: PubChem BioAssay AID248 (DTP/NCI, 2004)
Several values for one entry are separate records, joined by “and”; a condition that tells them apart may be missing. Equal values may be shown once. Inconclusive results and toxic doses are left out. No stated cut-off is given here; in the data, active means T/C of 150% or more; inactive means T/C below 125%.

Test system: L1210 leukemia ip in BDF1 mice, survival T/C
Test: NCI In Vivo Anticancer Drug Screen. Data for tumor model L1210 Leukemia (intraperitoneal) in B6D2F1 (BDF1) mice
Settings: endpoint: mean survival time, higher = longer survival
In short: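 Tumor was transplanted into mice, which were then dosed with test compound or vehicle alone. Survival was recorded for each group, and the treated figure was expressed relative to the control figure.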

[1] = dose: 100.0 mg/kg/injection, schedule: Q01DX009 (ip), vehicle: saline with Tween-80
[2] = dose: 200.0 mg/kg/injection, schedule: Q01DX009 (ip), vehicle: saline with Tween-80
[3] = dose: 400.0 mg/kg/injection, schedule: Q01DX009 (ip), vehicle: saline with Tween-80
[4] = dose: 100.0 mg/kg/injection, schedule: Q01DX001 (ip), vehicle: Klucel (hydroxypropylcellulose) (HPC)
[5] = dose: 200.0 mg/kg/injection, schedule: Q01DX001 (ip), vehicle: Klucel (hydroxypropylcellulose) (HPC)
[6] = dose: 400.0 mg/kg/injection, schedule: Q01DX001 (ip), vehicle: Klucel (hydroxypropylcellulose) (HPC)
[7] = dose: 100.0 mg/kg/injection, schedule: Q04DX003 (ip), vehicle: Klucel (hydroxypropylcellulose) (HPC)
[8] = dose: 100.0 mg/kg/injection, schedule: Q04DX002 (ip), vehicle: saline with Tween-80
[9] = dose: 200.0 mg/kg/injection, schedule: Q04DX002 (ip), vehicle: saline with Tween-80
[10] = dose: 400.0 mg/kg/injection, schedule: Q04DX002 (ip), vehicle: saline with Tween-80
[11] = dose: 100.0 mg/kg/injection, schedule: Q01DX009 (ip), vehicle: Klucel (hydroxypropylcellulose) (HPC)
[12] = dose: 200.0 mg/kg/injection, schedule: Q01DX009 (ip), vehicle: Klucel (hydroxypropylcellulose) (HPC)
[13] = dose: 100.0 mg/kg/injection, schedule: Q04DX002 (ip), vehicle: Klucel (hydroxypropylcellulose) (HPC)
[14] = dose: 200.0 mg/kg/injection, schedule: Q04DX002 (ip), vehicle: Klucel (hydroxypropylcellulose) (HPC)
[15] = dose: 400.0 mg/kg/injection, schedule: Q04DX002 (ip), vehicle: Klucel (hydroxypropylcellulose) (HPC)

Measured: T/C

COc1ccc(C2CCc3cc4c(cc3C2=O)OCO4)cc1OC (configuration not stated)
inactive: [1] 98 % of control | [2] 98 % of control | [3] 98 % of control

COc1ccc(C(=O)/C=C/c2ccccc2)cc1
inactive: [4] 102 % of control | [5] 113 % of control | [6] 100 % of control

O=c1cc(CCCCCc2ccccc2)[nH]c(=O)[nH]1
inactive: [4] 97 % of control | [5] 97 % of control | [6] 101 % of control

O=c1c2ccccc2sc2c1ccc1ccccc12
inactive: [7] 100 % of control | dose: 200.0 mg/kg/injection, schedule: Q04DX003 (ip), vehicle: Klucel (hydroxypropylcellulose) (HPC) 103 % of control | dose: 400.0 mg/kg/injection, schedule: Q04DX003 (ip), vehicle: Klucel (hydroxypropylcellulose) (HPC) 96 % of control

CC1CN(Cc2cccc(C#N)c2)CC(C)N1 (configuration not stated)
inactive: dose: 25.0 mg/kg/injection, schedule: Q01DX009 (ip), vehicle: water 93 % of control | dose: 50.0 mg/kg/injection, schedule: Q01DX009 (ip), vehicle: water 101 % of control | dose: 100.0 mg/kg/injection, schedule: Q01DX009 (ip), vehicle: water 100 % of control

Cc1cccc(Cl)c1OCC(N)=O
inactive: [8] 111 % of control | [9] 103 % of control | [10] 111 % of control

Nc1[nH][nH]c(=O)c1N
inactive: dose: 50.0 mg/kg/injection, schedule: Q01DX009 (ip), vehicle: Klucel (hydroxypropylcellulose) (HPC) 117 % of control | [11] 100 % of control | [12] 100 % of control

CCCN1CC2=C1C(=O)c1ccccc1C2=O
inactive: dose: 100.0 mg/kg/injection, schedule: Q01DX001 (ip), vehicle: other 97 % of control | dose: 200.0 mg/kg/injection, schedule: Q01DX001 (ip), vehicle: other 93 % of control | dose: 400.0 mg/kg/injection, schedule: Q01DX001 (ip), vehicle: other 87 % of control

CN(CC#CCOc1ccc(Cl)cc1Cl)c1ccccc1
inactive: [13] 102 % of control | [14] 98 % of control | [15] 91 % of control

COC(=O)c1cn2ccc(C#N)cc2c1C(=O)OC
inactive: [8] 89 % of control | [9] 95 % of control | [10] 95 % of control

O=C(O)CSC(SCC(=O)O)(c1ccccc1)c1ccccc1
inactive: [13] 88 % of control | [14] 104 % of control | [15] 102 % of control

FC(F)(F)c1ccc2c(c1)N(CCCN1CCN(CC[n+]3ccccc3)CC1)c1ccccc1S2
inactive: dose: 1.56 mg/kg/injection, schedule: Q01DX009 (ip), vehicle: saline 95 % of control | dose: 3.12 mg/kg/injection, schedule: Q01DX009 (ip), vehicle: saline 95 % of control | dose: 6.25 mg/kg/injection, schedule: Q01DX009 (ip), vehicle: saline 110 % of control | dose: 9.2 mg/kg/injection, schedule: Q01DX009 (ip), vehicle: saline 120 % of control | dose: 12.5 mg/kg/injection, schedule: Q04DX003 (ip), vehicle: saline 101 % of control | dose: 14.0 mg/kg/injection, schedule: Q01DX009 (ip), vehicle: saline 109 % of control | dose: 25.0 mg/kg/injection, schedule: Q04DX003 (ip), vehicle: saline 97 % of control

CCOC(=O)c1[nH]c(COC(C)=O)c(CCC(=O)O)c1C
inactive: dose: 25.0 mg/kg/injection, schedule: Q04DX003 (ip), vehicle: Klucel (hydroxypropylcellulose) (HPC) 101 % of control | dose: 50.0 mg/kg/injection, schedule: Q04DX003 (ip), vehicle: Klucel (hydroxypropylcellulose) (HPC) 95 % of control | [4] 101 % of control | [7] 98 % of control | [5] 93 % of control | [6] 88 % of control

CC(C)(C)c1ccc(OC(=O)Nc2cc(C(F)(F)F)ccc2Cl)c(Br)c1
inactive: [11] 90 % of control | [12] 97 % of control | dose: 400.0 mg/kg/injection, schedule: Q01DX009 (ip), vehicle: Klucel (hydroxypropylcellulose) (HPC) 97 % of control

Cc1cc(C(C)(C)c2cc(C)c(O)c(C)c2)cc(C)c1O
inactive: [1] 95 % of control | dose: 100.0 mg/kg/injection, schedule: Q04DX003 (ip), vehicle: saline with Tween-80 105 % of control | [2] 93 % of control | dose: 200.0 mg/kg/injection, schedule: Q04DX003 (ip), vehicle: saline with Tween-80 102 % of control | [3] 97 % of control | dose: 400.0 mg/kg/injection, schedule: Q04DX003 (ip), vehicle: saline with Tween-80 96 % of control

Ic1ccc2c(c1)OCCOCCOCCOCCO2
inactive: dose: 50.0 mg/kg/injection, schedule: Q04DX002 (ip), vehicle: saline with Tween-80 102 % of control | [8] 102 % of control | [9] 107 % of control

O=C(NCCCCCCCCCCCCNC(=O)Nc1cccc(C2=NCC(O)CN2)c1)Nc1cccc(C2=NCC(O)CN2)c1 (configuration not stated)
inactive: dose: 62.5 mg/kg/injection, schedule: Q01DX Z (ip), vehicle: carboxymethylcellulose (CMC) 105 % of control | dose: 125.0 mg/kg/injection, schedule: Q01DX Z (ip), vehicle: carboxymethylcellulose (CMC) 94 % of control

O=S(=O)(CBr)C1C2C=CC(C2)C1c1ccccc1 (configuration not stated)
inactive: [13] 106 % of control | [14] 106 % of control | [15] 97 % of control

COc1ccccc1OCCOCCN(C)C1CC2CCC1(C)C2(C)C (configuration not stated)
inactive: [7] 93 % of control

Cc1cc(Cl)ccc1OC(=O)Nc1cccc2ccccc12
inactive: dose: 50.0 mg/kg/injection, schedule: Q01DX009 (ip), vehicle: carboxymethylcellulose (CMC) 97 % of control and 101 % of control | dose: 50.0 mg/kg/injection, schedule: Q04DX003 (ip), vehicle: carboxymethylcellulose (CMC) 103 % of control | dose: 100.0 mg/kg/injection, schedule: Q01DX009 (ip), vehicle: carboxymethylcellulose (CMC) 102 % of control and 104 % of control | [13] 101 % of control | dose: 100.0 mg/kg/injection, schedule: Q04DX002 (ip), vehicle: carboxymethylcellulose (CMC) 98 % of control and 91 % of control | dose: 100.0 mg/kg/injection, schedule: Q04DX003 (ip), vehicle: carboxymethylcellulose (CMC) 100 % of control | dose: 200.0 mg/kg/injection, schedule: Q01DX009 (ip), vehicle: carboxymethylcellulose (CMC) 94 % of control and 92 % of control | [14] 112 % of control | dose: 200.0 mg/kg/injection, schedule: Q04DX002 (ip), vehicle: carboxymethylcellulose (CMC) 98 % of control and 100 % of control | dose: 200.0 mg/kg/injection, schedule: Q04DX003 (ip), vehicle: carboxymethylcellulose (CMC) 95 % of control | [15] 104 % of control | dose: 400.0 mg/kg/injection, schedule: Q04DX002 (ip), vehicle: carboxymethylcellulose (CMC) 104 % of control

CCOc1cc(N)nc(N)c1[N+](=O)[O-]
inactive: dose: 100.0 mg/kg/injection, schedule: Q01DX001 (ip), vehicle: carboxymethylcellulose (CMC) 95 % of control | dose: 200.0 mg/kg/injection, schedule: Q01DX001 (ip), vehicle: carboxymethylcellulose (CMC) 87 % of control

COc1ccc(CN2CCCN(Cc3ccc(OC)cc3OC)C2c2ccncc2)c(OC)c1
inactive: dose: 50.0 mg/kg/injection, schedule: Q01DX001 (ip), vehicle: saline 94 % of control | dose: 100.0 mg/kg/injection, schedule: Q01DX001 (ip), vehicle: saline 97 % of control | dose: 200.0 mg/kg/injection, schedule: Q01DX001 (ip), vehicle: saline 105 % of control | dose: 400.0 mg/kg/injection, schedule: Q01DX001 (ip), vehicle: saline 103 % of control
